This note sets out measurements from ChEMBL document CHEMBL3132769, “Fragment growing to retain or alter the selectivity of anchored kinase hinge-binding fragments” (Medchemcomm, 2014).

Structures are written as SMILES.

The target in test [1] is Dual specificity tyrosine-phosphorylation-regulated kinase 1A (Rattus norvegicus) (UniProt Q63470). The experiment in a line: Inhibition of rat full length DYRK1a expressed in Escherichia coli cell assessed as substrate phosphorylation using fluorescence-labelled peptides as substrate at 2 uM after 90 mins by microfluidic peptide phosphorylation assay.
In test [2] the target is RAC-alpha serine/threonine-protein kinase (Homo sapiens) (UniProt P31749). As to the kind of experiment: Inhibition of human AKT1 catalytic domain expressed in baculovirus assessed as substrate phosphorylation using fluorescence-labelled peptides as substrate at 2 uM after 90 mins by microfluidic peptide phosphorylation assay.
Chain of RAC-alpha serine/threonine-protein kinase (Homo sapiens) (P31749 whole entry, the tested form may be a part): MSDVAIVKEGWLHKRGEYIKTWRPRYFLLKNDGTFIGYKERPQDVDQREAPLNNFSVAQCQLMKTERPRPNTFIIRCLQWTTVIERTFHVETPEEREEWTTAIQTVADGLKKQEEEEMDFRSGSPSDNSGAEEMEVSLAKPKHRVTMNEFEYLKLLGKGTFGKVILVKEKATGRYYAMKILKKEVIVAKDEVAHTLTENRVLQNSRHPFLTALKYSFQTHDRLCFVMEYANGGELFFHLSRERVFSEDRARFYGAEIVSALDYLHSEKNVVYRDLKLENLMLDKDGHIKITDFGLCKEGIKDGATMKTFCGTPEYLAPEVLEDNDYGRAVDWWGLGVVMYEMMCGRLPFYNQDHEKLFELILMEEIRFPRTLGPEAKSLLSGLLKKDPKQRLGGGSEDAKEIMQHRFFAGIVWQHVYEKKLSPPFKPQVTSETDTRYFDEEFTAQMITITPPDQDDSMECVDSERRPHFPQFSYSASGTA
Test [3] concerns the target T1, Protein kinase C epsilon type (Homo sapiens) (UniProt Q02156).
T1 sequence (whole entry): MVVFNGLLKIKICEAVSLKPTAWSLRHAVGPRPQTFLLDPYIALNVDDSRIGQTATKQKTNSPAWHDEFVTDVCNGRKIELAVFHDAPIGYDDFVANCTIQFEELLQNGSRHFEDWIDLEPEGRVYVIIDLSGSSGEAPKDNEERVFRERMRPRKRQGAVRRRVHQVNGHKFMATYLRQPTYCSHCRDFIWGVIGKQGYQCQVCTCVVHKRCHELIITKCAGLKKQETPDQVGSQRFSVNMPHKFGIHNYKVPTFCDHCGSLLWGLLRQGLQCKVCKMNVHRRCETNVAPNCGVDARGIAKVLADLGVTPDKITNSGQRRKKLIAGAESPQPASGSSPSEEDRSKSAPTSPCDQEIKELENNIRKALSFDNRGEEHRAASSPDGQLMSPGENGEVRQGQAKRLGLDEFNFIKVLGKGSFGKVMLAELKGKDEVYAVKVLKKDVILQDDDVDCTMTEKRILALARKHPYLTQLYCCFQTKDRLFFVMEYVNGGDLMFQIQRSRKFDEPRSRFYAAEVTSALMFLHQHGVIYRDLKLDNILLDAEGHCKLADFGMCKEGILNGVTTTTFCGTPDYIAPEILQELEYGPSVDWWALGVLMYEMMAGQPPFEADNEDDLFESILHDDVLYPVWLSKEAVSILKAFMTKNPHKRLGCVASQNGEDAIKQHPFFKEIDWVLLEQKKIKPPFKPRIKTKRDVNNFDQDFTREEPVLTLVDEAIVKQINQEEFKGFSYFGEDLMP
The experiment in a line: Inhibition of human truncated PKC epsilon expressed in baculovirus assessed as substrate phosphorylation using fluorescence-labelled peptides as substrate at 2 uM after 90 mins by microfluidic peptide phosphorylation assay.

In test [4] the test system is Fibroblast growth factor receptor 2 (Homo sapiens), P21802 [N549H]. As to the kind of experiment: Inhibition of human FGFR2 N549H mutant catalytic domain expressed in baculovirus assessed as substrate phosphorylation using fluorescence-labelled peptides as substrate at 0.1 uM after 90 mins by microfluidic peptide phosphorylation assay.
Chain of Fibroblast growth factor receptor 2 (Homo sapiens), P21802 [N549H] (P21802 whole entry N549H, the tested form may be a part): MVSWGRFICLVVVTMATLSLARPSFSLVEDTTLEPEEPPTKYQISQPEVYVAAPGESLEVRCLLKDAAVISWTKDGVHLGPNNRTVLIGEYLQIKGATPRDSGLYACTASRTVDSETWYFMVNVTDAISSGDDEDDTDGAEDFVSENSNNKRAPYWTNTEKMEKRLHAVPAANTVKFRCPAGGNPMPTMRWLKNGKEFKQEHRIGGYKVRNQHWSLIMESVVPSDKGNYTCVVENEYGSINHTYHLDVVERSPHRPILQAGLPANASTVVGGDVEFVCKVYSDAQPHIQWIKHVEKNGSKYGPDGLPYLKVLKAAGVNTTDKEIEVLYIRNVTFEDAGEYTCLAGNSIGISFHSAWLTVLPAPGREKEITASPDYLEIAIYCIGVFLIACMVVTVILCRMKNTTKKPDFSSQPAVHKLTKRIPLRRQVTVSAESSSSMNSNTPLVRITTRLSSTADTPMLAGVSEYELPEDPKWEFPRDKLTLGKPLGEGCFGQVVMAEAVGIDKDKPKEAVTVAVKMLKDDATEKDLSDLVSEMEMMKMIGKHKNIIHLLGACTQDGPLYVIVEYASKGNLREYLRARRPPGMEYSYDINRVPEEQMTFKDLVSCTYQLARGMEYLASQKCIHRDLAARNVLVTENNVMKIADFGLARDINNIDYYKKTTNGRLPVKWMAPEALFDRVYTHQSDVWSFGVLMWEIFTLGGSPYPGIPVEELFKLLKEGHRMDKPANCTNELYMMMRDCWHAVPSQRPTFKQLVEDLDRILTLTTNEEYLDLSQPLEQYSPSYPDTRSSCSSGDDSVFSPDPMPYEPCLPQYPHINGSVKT
For test [5], the target named is T2, Serine/threonine-protein kinase DCLK2 (Homo sapiens) (UniProt Q8N568).
T2 sequence (whole entry): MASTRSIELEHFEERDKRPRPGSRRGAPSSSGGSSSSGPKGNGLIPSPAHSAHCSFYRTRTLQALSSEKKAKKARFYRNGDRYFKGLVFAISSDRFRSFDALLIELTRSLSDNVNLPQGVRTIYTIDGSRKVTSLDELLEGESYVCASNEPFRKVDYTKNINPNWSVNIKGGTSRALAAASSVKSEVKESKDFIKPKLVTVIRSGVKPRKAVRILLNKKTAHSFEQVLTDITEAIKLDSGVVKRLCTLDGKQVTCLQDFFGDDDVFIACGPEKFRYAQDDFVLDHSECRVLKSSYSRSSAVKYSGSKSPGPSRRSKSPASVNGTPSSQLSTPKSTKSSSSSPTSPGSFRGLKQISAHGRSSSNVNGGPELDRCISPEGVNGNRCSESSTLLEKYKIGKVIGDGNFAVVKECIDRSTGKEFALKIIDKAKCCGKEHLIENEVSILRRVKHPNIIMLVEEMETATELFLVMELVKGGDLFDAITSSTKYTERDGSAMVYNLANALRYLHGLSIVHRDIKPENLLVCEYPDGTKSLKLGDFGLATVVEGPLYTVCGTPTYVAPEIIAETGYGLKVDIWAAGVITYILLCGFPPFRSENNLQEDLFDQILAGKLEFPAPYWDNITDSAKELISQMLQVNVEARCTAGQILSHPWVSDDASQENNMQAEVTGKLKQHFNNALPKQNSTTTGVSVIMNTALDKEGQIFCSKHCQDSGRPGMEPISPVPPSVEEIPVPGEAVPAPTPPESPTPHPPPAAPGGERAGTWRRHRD
As to the kind of experiment: Inhibition of human full length DCAMKL2 expressed in baculovirus assessed as substrate phosphorylation using fluorescence-labelled peptides as substrate at 0.1 uM after 90 mins by microfluidic peptide phosphorylation assay.

Test [6] concerns the target Mitogen-activated protein kinase 1 (Homo sapiens) (UniProt P28482). As to the kind of experiment: Inhibition of human full length ERK2 expressed in Escherichia coli cell assessed as substrate phosphorylation using fluorescence-labelled peptides as substrate at 0.2 uM after 90 mins by microfluidic peptide phosphorylation assay.
Test [7] concerns the target Ribosomal protein S6 kinase alpha-3 (Homo sapiens) (UniProt P51812). The experiment in a line: Inhibition of human full length RSK2 expressed in baculovirus assessed as substrate phosphorylation using fluorescence-labelled peptides as substrate at 8 uM after 90 mins by microfluidic peptide phosphorylation assay.
Test [8] has as its target Tyrosine-protein kinase HCK (Homo sapiens) (UniProt P08631). As to the kind of experiment: Inhibition of human HCK catalytic domain expressed in baculovirus assessed as substrate phosphorylation using fluorescence-labelled peptides as substrate at 8 uM after 90 mins by microfluidic peptide phosphorylation assay.
For test [9], the system named is Tyrosine-protein kinase ABL1 (Homo sapiens), P00519 [Q252H]. As to the kind of experiment: Inhibition of human truncated ABL Q252H mutant expressed in baculovirus assessed as substrate phosphorylation using fluorescence-labelled peptides as substrate at 70 uM after 90 mins by microfluidic peptide phosphorylation assay.
The target in test [10] is Hepatocyte growth factor receptor (Homo sapiens) (UniProt P08581). The experiment in a line: Inhibition of human MET cytoplasmic domain expressed in baculovirus assessed as substrate phosphorylation using fluorescence-labelled peptides as substrate at 70 uM after 90 mins by microfluidic peptide phosphorylation assay.
Chain of Hepatocyte growth factor receptor (Homo sapiens) (P08581 whole entry, the tested form may be a part): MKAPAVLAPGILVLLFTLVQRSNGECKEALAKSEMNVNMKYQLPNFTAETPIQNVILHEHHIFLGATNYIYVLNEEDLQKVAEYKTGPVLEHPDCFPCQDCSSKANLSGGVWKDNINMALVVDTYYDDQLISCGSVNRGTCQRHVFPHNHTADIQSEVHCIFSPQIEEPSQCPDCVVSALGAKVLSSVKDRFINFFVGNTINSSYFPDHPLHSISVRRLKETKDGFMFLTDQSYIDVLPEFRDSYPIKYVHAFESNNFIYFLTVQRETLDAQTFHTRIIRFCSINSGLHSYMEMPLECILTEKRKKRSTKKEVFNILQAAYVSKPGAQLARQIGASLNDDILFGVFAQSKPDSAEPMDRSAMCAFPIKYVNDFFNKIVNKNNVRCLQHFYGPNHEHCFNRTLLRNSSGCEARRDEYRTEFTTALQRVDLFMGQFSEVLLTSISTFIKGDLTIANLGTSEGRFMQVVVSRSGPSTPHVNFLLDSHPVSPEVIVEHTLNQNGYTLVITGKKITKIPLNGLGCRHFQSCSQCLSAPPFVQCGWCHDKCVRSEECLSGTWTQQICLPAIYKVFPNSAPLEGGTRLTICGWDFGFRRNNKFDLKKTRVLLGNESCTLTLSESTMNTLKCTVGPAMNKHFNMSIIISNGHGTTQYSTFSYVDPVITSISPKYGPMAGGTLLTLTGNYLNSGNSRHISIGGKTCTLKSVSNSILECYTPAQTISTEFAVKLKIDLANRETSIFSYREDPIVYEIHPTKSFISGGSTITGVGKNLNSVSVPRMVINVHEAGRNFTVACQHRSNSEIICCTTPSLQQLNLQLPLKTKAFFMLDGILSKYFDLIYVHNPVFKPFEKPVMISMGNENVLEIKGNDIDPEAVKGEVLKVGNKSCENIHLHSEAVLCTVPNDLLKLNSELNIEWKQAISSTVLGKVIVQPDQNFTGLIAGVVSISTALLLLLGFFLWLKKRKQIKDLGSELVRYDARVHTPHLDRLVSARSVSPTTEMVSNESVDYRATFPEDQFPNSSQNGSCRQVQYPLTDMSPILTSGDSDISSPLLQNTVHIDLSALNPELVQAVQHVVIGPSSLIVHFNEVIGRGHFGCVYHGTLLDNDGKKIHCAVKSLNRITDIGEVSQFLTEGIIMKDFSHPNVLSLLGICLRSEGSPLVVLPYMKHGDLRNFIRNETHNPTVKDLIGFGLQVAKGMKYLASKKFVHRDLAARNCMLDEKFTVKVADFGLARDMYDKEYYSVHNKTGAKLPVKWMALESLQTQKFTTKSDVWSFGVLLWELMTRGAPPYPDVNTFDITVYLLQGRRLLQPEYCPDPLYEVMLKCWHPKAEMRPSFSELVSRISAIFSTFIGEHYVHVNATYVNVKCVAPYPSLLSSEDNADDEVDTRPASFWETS
In test [11] the target is Tyrosine-protein kinase Fyn (Homo sapiens) (UniProt P06241). As to the kind of experiment: Inhibition of human full length FYN expressed in baculovirus assessed as substrate phosphorylation using fluorescence-labelled peptides as substrate at 420 uM after 90 mins by microfluidic peptide phosphorylation assay.
Chain of Tyrosine-protein kinase Fyn (Homo sapiens) (P06241 2-537 limits assumed): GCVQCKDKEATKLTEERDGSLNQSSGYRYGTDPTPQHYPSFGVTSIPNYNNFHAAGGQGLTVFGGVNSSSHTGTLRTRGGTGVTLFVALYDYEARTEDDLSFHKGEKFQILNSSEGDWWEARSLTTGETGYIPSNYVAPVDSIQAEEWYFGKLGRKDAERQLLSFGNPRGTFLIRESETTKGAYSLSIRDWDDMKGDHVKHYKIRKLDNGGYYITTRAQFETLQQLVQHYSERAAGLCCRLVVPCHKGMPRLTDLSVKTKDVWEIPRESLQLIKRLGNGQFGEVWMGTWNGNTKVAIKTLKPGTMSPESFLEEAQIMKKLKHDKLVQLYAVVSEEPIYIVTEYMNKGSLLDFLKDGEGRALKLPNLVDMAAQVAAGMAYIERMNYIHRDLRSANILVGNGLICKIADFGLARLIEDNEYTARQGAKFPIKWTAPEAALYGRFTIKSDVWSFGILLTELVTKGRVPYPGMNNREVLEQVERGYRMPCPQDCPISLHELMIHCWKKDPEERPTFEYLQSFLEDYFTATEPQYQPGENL

Chain of Tyrosine-protein kinase HCK (Homo sapiens) (P08631 2-526 limits assumed): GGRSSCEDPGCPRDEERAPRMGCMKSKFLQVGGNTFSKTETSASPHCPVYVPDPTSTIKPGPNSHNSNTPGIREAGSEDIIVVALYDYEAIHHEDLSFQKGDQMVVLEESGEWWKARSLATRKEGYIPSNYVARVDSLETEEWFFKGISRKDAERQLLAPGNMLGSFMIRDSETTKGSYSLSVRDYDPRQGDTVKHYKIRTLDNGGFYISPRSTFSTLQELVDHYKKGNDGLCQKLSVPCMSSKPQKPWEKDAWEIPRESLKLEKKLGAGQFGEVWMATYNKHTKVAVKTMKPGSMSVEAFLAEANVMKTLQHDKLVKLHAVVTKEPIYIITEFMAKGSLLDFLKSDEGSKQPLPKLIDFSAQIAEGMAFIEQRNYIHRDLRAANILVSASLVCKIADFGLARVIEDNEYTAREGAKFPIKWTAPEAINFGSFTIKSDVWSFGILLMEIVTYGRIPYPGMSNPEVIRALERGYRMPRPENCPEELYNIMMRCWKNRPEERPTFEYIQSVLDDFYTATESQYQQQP
Chain of Ribosomal protein S6 kinase alpha-3 (Homo sapiens) (P51812 whole entry, the tested form may be a part): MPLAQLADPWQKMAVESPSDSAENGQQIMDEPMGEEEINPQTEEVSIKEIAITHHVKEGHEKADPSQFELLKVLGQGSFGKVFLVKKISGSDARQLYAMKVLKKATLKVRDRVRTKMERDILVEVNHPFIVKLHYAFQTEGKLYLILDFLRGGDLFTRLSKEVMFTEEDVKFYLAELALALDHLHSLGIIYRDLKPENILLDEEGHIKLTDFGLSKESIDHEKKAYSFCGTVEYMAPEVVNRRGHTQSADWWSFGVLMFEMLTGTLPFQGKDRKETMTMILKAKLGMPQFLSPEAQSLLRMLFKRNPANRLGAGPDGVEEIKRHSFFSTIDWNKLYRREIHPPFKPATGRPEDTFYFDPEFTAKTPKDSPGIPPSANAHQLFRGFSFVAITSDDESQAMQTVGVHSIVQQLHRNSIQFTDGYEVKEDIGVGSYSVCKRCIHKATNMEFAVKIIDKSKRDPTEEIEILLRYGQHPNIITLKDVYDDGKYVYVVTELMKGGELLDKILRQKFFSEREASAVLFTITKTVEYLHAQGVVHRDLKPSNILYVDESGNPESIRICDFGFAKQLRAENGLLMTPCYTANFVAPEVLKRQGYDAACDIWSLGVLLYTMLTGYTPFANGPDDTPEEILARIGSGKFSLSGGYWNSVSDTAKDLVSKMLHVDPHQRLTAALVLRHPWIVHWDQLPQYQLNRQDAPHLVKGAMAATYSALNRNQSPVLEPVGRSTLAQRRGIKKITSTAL
Chain of Mitogen-activated protein kinase 1 (Homo sapiens) (P28482 whole entry): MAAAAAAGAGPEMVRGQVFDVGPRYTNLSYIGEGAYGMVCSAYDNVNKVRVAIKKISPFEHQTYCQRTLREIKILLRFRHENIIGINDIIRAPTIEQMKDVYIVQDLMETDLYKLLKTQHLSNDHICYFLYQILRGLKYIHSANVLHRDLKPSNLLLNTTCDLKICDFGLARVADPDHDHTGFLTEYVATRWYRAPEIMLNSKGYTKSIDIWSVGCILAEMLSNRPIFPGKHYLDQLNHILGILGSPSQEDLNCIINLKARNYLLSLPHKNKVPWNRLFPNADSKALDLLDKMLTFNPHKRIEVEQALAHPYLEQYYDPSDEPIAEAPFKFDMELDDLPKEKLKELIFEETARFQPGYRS

Take `NC1CCN(c2ncnc3[nH]ccc23)CC1`: the values for the inhibition in test [1], in [2] and in test [3] were 0.5%, 83% and 2.5%, respectively.

As for `C[C@H](CN(C)C)Oc1nc(Nc2cc3cccc(Cl)c3cn2)cnc1C#N`, the inhibition in test [4] is 7.5%; in test [5], 6%.

`Clc1ccc(C2(c3ccc(-c4ncnc5[nH]cnc45)cc3)CCNCC2)cc1`: in test [6], the inhibition is 7%.

Regarding `NCC1CCN(c2ncnc3[nH]ccc23)CC1`, the inhibition in [7] is 32%; in [8] it was 19.5%.

Regarding `CNCc1ccc(-c2ncnc3[nH]cnc23)cc1`, the results for the inhibition in test [9] and in test [10] were 39% and 0%, respectively.

For the molecule `c1nc(N2CCOCC2)c2nc[nH]c2n1`, the inhibition in test [11] amounted to 64.5%.
